Converted amounts (≈) assume the structure as drawn. Read-outs that look alike come from different tables or passages of the source. Blank lines part the entries; values can stand above or below the compound they belong to.
Tests used:
[1] = Pharmacokinetic study after oral and intravenous administration to Wistar rats; assay type: in vivo; conditions: for k el: Wistar, read-out: β (elimination rate constant) (converted); for bioavailability: oral 20 mg/kg vs intravenous 10 mg/kg; for half-life: read-out: t1/2 β (converted)
Procedure: Male and female Wistar rats weighting 250 ± 10 g were used. They were kept at 25 ± 1 °C temperature and controlled humidity with 12 h light/dark cycle. The animals were fasted overnight before the experiment and had free access to water. The study protocol was approved by the local committee for animal experiments of Shahid Beheshti University of Medical Sciences (Tehran, Iran).
Male or female rats were chosen randomly (6 rats/group) and assigned to receive […] solution in normal saline for intravenous (IV) via the tail vein or oral administration via oral gavages. The administered doses in both sexes for intravenous (IV) and oral studies were 10 mg/kg and 20 mg/kg, respectively. Blood samples were collected from the tail vein immediately prior to administration (blank sample) and at 0.08, 0.25, 0.5, 1, 2, 4, 6, 8, 10, 21 and 22 h after administration into heparinized micro-tubes. Blood samples were centrifuged at 1000 g for 10 min and the separated plasmas were kept at –20 °C until analysis.
Pharmacokinetic analyses were performed using WinNonlin software (Pharsight Corporation, Mountain View, USA, Version 3.2) and two-compartmental model was chosen. The following pharmacokinetic parameters were estimated: terminal elimination half-life (t1/2), area under the plasma concentration versus time curve from zero to the infinity (AUC 0-∞), distribution and elimination rate constants (α, β), volume of distribution (Vd), and total body clearance (CL). The peak plasma concentration (Cmax) and the time to reach Cmax (Tmax) for oral dose were obtained directly from the observed individual plasma concentration-time data.

[2] = Aqueous solubility (OECD Guideline No. 105); assay type: physicochemical; conditions: water; 3 replications
Procedure: (§1) Melting point was determined with an Electrothermal 9200 apparatus (UK). Aqueous solubility and octanol/water partition coefficient of the synthesized derivative was determined according to Organisation for Economic Co-operation and Development (OECD) Guideline for Testing of Chemicals, No.105, and No. 107 respectively ([11]-[13]).

[3] = Forced degradation stability study (ICH guideline for new drug substance); assay type: physicochemical; conditions: for Forced tests results, Mean ±SD: fraction recovered intact, 3 replications
Procedure: The stability study was conducted according to forced degradation protocol ICH guideline for new drug substance ([14]-[16]). In brief, the stability of AZGH101 at acidic, basic, and neutral medium was evaluated. Moreover, the effect of oxidative condition (H2O2, 3 and 30%), thermal degradation at solid state, and photolysis on the stability of AZGH101 was examined.

COX-2 = conditions: cited from earlier work
[4] = Octanol/water partition coefficient, log P (OECD Guideline No. 107); assay type: physicochemical; conditions: n = 3, read-out: log P (logarithm of octanol/water partition coefficient)
Procedure: as §1

[5] = 'It was reported'; cited from earlier work
[6] = cited from earlier work
[7] = oral 20 mg/kg, female Wistar rats
[8] = oral 20 mg/kg, male Wistar rats
[9] = rat, plasma, intravenous 10 mg/kg, female Wistar rats
[10] = rat, plasma, intravenous 10 mg/kg, male Wistar rats
[11] = rat, plasma, oral 20 mg/kg, female Wistar rats
[12] = rat, plasma, oral 20 mg/kg, male Wistar rats

k el ([1]; female, rat, plasma, iv, 10 mg/kg, intravenous 10 mg/kg, female Wistar rats): 9.72e-05 s⁻¹
k el ([1]; female, rat, plasma, po, 20 mg/kg, oral 20 mg/kg, female Wistar rats): 3.61e-05 s⁻¹
α (distribution rate constant) ([1]; intravenous 10 mg/kg, female Wistar rats): 3.70 ± 0.80 h⁻¹
β (elimination rate constant) ([1]; intravenous 10 mg/kg, female Wistar rats, 10 mg/kg): 0.355 ± 0.006 h⁻¹
α (distribution rate constant) ([1]; intravenous 10 mg/kg, male Wistar rats): 4.25 ± 0.99 h⁻¹
β (elimination rate constant) ([1]; intravenous 10 mg/kg, male Wistar rats, 10 mg/kg): 0.349 ± 0.008 h⁻¹
k el ([1]; male, rat, plasma, iv, 10 mg/kg, intravenous 10 mg/kg, male Wistar rats): 9.72e-05 s⁻¹
k el ([1]; male, rat, plasma, po, 20 mg/kg, oral 20 mg/kg, male Wistar rats): 3.89e-05 s⁻¹
Cl [1, 7]: 31.73 ± 3.31 mL/h
Ka [1, 7]: 1.00 ± 0.10 h⁻¹
Vd [1, 7]: 245.87 ± 44.86 mL
α (distribution rate constant) [1, 7]: 3.86 ± 2.99 h⁻¹
Cl [1, 8]: 32.45 ± 1.65 mL/h
Ka [1, 8]: 0.92 ± 0.18 h⁻¹
Vd [1, 8]: 233.55 ± 27.82 mL
α (distribution rate constant) [1, 8]: 3.34 ± 1.26 h⁻¹
bioavailability ([1]; rat, plasma, Wistar rats, both sexes, read-out: oral absolute bioavailability): ~27%
AUC(0-inf) [1, 9]: 79400 ± 5810 ng·h/mL
C0 [1, 9]: 86.8 ± 11.3 µg/mL
clearance [1, 9]: 0.527 mL/min
Vd ([1]; rat, plasma, intravenous 10 mg/kg, female Wistar rats, read-out: Vd): 89.3 ± 7.68 mL
half-life [1, 9]: 1.97 ± 0.06 h
AUC(0-inf) [1, 10]: 77100 ± 3620 ng·h/mL
C0 [1, 10]: 92.3 ± 11 µg/mL
clearance [1, 10]: 0.541 mL/min
Vd ([1]; rat, plasma, intravenous 10 mg/kg, male Wistar rats, read-out: Vd): 94.1 ± 6.42 mL
half-life [1, 10]: 2.01 ± 0.04 h
bioavailability ([1]; rat, plasma, female Wistar rats, read-out: F (oral absolute bioavailability)): 27.73 ± 0.01%
bioavailability ([1]; rat, plasma, male Wistar rats, read-out: F (oral absolute bioavailability)): 26.02 ± 0.03%
AUC(0-inf) [1, 11]: 41300 ± 4200 ng·h/mL
Cmax [1, 11]: 21.8 ± 1.33 µg/mL
Tmax [1, 11]: 0.5 h
half-life [1, 11]: 5.34 ± 0.48 h
AUC(0-inf) [1, 12]: 42800 ± 2240 ng·h/mL
Cmax [1, 12]: 20.4 ± 1.49 µg/mL
Tmax [1, 12]: 0.5 h
half-life [1, 12]: 4.99 ± 0.52 h
solubility [2]: 1.4 ± 0.17 µg/mL (≈ 3.24 µM)
Forced tests results, Mean ±SD ([3]; Hydrolysis (Acid)): 0.95±0.02
Forced tests results, Mean ±SD ([3]; Hydrolysis (Base)): 0.92±0.03
Forced tests results, Mean ±SD ([3]; Hydrolysis (Buffer pH=7)): 0.94±0.02
Forced tests results, Mean ±SD ([3]; Oxidative stress (H2O2-3%)): 0.93±0.04
Forced tests results, Mean ±SD ([3]; Oxidative stress (H2O2-30%)): 0.91±0.02
Forced tests results, Mean ±SD ([3]; Photodegradation (Acid)): 0.94±0.02
Forced tests results, Mean ±SD ([3]; Photodegradation (Base)): 0.94±0.01
Forced tests results, Mean ±SD ([3]; Photodegradation (Buffer pH=7)): 0.95±0.02
Forced tests results, Mean ±SD ([3]; Thermal Degradation (solid phase)): 0.96±0.03
AZGH101 recovered intact ([3]; in all of the examined stress conditions): more than 90%
logP [4]: 3.82 ± 0.001
Compound: CS(=O)(=O)c1ccc(-c2cc(C(=O)O)c3cc(C(=O)c4ccccc4)ccc3n2)cc1 [AZGH101, 6-benzoyl-2-(4-(methylsulfonyl)phenyl)quinoline-4-carboxylic acid]
IC50 (COX-2): 77 nM
selectivity index (COX-1 IC50 / COX-2 IC50) (COX-2): less than 500
tendency against inhibition of COX-2, times greater than ketoprofen (COX-2; relative to ketoprofen): about 10 times

Compound: Cc1ccc(-c2cc(C(F)(F)F)nn2-c2ccc(S(N)(=O)=O)cc2)cc1 [celecoxib]
solubility in water [5]: 3.3 µg/mL (≈ 8.65 µM)

Compound: CC(C(=O)O)c1cccc(C(=O)c2ccccc2)c1 (stereo not drawn) [ketoprofen]
log P [6]: 3.1
